Laboratory results published in patent publication US5688767A, “Treatment of endotoxin-associated disorders with cationic peptides” (priority 1996, dated 1997).
Converted amounts (≈) assume the structure as drawn. Where two headings read alike, the source gives them in different places.

Tests used:
S. aureus = test: microbe, parasite or virus in culture; format: cell-based, Staphylococcus aureus
Description: (§1) The minimum inhibitory concentrations of (MIC) of CEME, CEMA and melittin were determined for a number of different bacteria (Table 2). Briefly, cells were grown overnight at 37° C. in LB-S (Luria broth without any salt supplement) and diluted one in 10,000 in the same medium to give concentrations of about 10^4 to 10^5 CFU/ml. The broth dilutions were set up in a 96 well microtiter plate by putting 200 μl of LB-S containing the initial concentration of antibiotic or compound in column 1 and 100 μl of the same medium in columns 2-12. The compounds were diluted by taking 100 μl of broth from column 1 and mixing it with column 2, resulting in a one in two dilution. This was continued to column 10. Finally, 10 μl of bacteria were pipetted into columns 1-11, and the plates incubated overnight at 37° C. The next day the plates were scored for growth in the wells, and the MIC determined.

P. aeruginosa = test: microbe, parasite or virus in culture; format: cell-based, Pseudomonas aeruginosa
Description: as §1
(§2) Bacteria included the Bort strain of E. coli (Bortolussi, et al., Inf. Immun., 25:293, 1979) that was originally derived from a case of neonatal meningitis, and which is therefore considered a relevant pathogenic strain to study, and the 0111:B4 strain of E. coli (kindly provided by Dr. D. Morrison) which is a standard source of endotoxin. (Kelly, et al., Inf. Immun., 59:4491, 1991). In addition, P. aeruginosa PA01 strain H103, P. aeruginosa M2, P. aeruginosa K799, Eschericha coli UB 1005, Enterobacter cloacae 218S, Salmonella typhimurium MS7953s, Klebsiella pneumoniae ATCC 13883, Xanthomonas maltophilia ATCC 13637, and Acinetobacter calcoacetious 8193 were employed. LPS was obtained from E. coli Bort by the technique of Westphal and Jann, (Westphal, et al., Acad. Press, Inc. NY., 5:83) and from P. aeruginosa H103 by the method of Darveau and Hancock, (Darveau, et al., J. Bacteriol, 155:831, […]). E. coli 0111:B4 LPS was purchased from Sigma.

S. typhimurium = test: microbe, parasite or virus in culture; format: cell-based, Salmonella typhimurium
Description: as §1, §2

E. cloacae = test: microbe, parasite or virus in culture; format: cell-based, Enterobacter cloacae
Description: as §1, §2

[1] = MIC of common antibiotics in the presence of sub-MIC levels of cationic peptides; format: cell-based
From the text: The ability of the cationic peptides to work synergistically was examined by determining the MIC values for some commonly used antibiotics in the presence of sub-MIC levels of cationic peptides (Table 4). […] This may be due to the high membrane permeabilizing activity of CEMA (see below). However, the peptides did lower the MIC of polymyxin B, possibly due to the fact that they are all taken up by the same pathway and are therefore aiding each other's uptake. Of interest is the influence that melittin has on the MIC of polymyxin B, given the weak membrane permeabilizing activity of melittin.

E. coli = test: microbe, parasite or virus in culture; format: cell-based, Escherichia coli
Description: as §1, §2

P. AERUGINOSA H309 = test: microbe, parasite or virus in culture; format: cell-based, Pseudomonas aeruginosa
Description: as §1, with “Briefly,” for “The minimum inhibitory concentrations of (MIC) of CEME, CEMA and melittin were determined for a number of different bacteria (Table 2). Briefly,”

[2] = system: P. aeruginosa H309 Whole Cells; test: DPx binding inhibition using whole cells; design: species or system Pseudomonas aeruginosa; conditions: DPx at 90-100% binding saturation, average of at least three trials
Description: For DPx binding inhibition assays using whole cells instead of purified LPS, H309 cells were prepared the same way as for the lysozyme lysis assay. The assay consisted of 10 μl of cells at an OD600 of 0.5, 990 μl of 5 mM HEPES pH 7.2 and 5 mM KCN, and the concentration of DPx that gave 90-100% binding saturation. […] Compounds were titrated in, and I50 values were determined as described above.

P. aeruginosa H103 LPS = test: Dansyl polymyxin (DPx) displacement from purified LPS; format: binding, Pseudomonas aeruginosa; conditions: 2.5 μM DPx, 3 μg/ml LPS, 5 mM HEPES pH 7.2, average of at least three trials
Description: In this assay, DPx was incubated with LPS to saturate the binding sites and then, while polycationic compounds are titrated into the reaction, displacement of the DPx was monitored by the decrease in fluorescence (FIG. 9). P. aeruginosa LPS was isolated as previously described (Darveau, et al., J of Bacteriology, 155:831, 1983) Dansyl polymyxin was synthesized as described by Schindler, et al., B. Antimicrobial Agents and Chemo, 8:95, 1975.
The method of Moore, et al., (Antimicrobial Agents and Chemo., 29:496, 1987), was used to test how much DPx was needed to saturate the binding sties on LPS. Briefly, 5 μl samples of 100 μM DPx were titrated sequentially into 1 ml of 3 μg/ml of LPS until a maximum fluorescence was reached. The fluorescence was measured in a Perkin-Elmer 650-10S fluorescence spectrophotometer with an excitation wavelength of 340 nm and an emission wavelength of 485 nm using slit widths of 5 nm. […] For the binding inhibition assays (Moore, et al., Antimicrobial Agents and Chemo., 29:496, 1987), 2.5 μM DPx was added to 3 μg/ml of H103 LPS in 5 mM HEPES pH 7.2. The test compounds were added 5 μl at a time and the decrease in fluorescence due to displacement of the DPx from the LPS was recorded.
When the data was plotted as a double reciprocal plot (FIG. 10), the X-intercept provided a value that is equal to -1/I50.

CC(C)(O/N=C(\C(=O)N[C@@H]1C(=O)N2C(C(=O)[O-])=C(C[n+]3ccccc3)CS[C@H]12)c1csc(N)n1)C(=O)O [Ceftazidime, ceftazidime]
MIC (S. aureus; Staphylococcus aureus, strain RN4220, Methicillin sensitive): 8 µg/mL (≈ 14.6 µM)
MIC (S. aureus; Staphylococcus aureus, strain SAP0017, Methicillin resistant): > 16 µg/mL
MIC (P. aeruginosa; Pseudomonas aeruginosa, strain H187, Parent of H188, read-out: MIC): 2 µg/mL (≈ 3.66 µM)
MIC (P. aeruginosa; Pseudomonas aeruginosa, strain H188, Antibiotic sensitive, read-out: MIC): 0.03 µg/mL (≈ 0.0549 µM)
MIC (P. aeruginosa; Pseudomonas aeruginosa, strain H309, Wildtype, read-out: MIC): 1 µg/mL (≈ 1.83 µM)
MIC (S. typhimurium; Salmonella enterica, TYPHIMURIUM): 0.25 µg/mL (≈ 0.457 µM)
MIC (S. typhimurium; strain C590, Defensin sensitive): 0.25 µg/mL (≈ 0.457 µM)
MIC (E. cloacae; Enterobacter cloacae, strain 218R1, β-lactam resistant): > 16 µg/mL
MIC (E. cloacae; Enterobacter cloacae, strain 218S, Parent of 218R1 (Table 2)): 0.5 µg/mL (≈ 0.915 µM)
MIC in the presence of ([1]; CEMA 0.7 μg/ml): 2 μg/m1
MIC in the presence of ([1]; CEMA 1.4 μg/ml): 2 μg/m1
MIC in the presence of ([1]; CEME 0.6 μg/ml): 4 μg/m1
MIC in the presence of ([1]; CEME 1.2 μg/ml): 4 μg/m1
MIC in the presence of ([1]; Melittin 2 μg/ml): 4 μg/m1
MIC in the presence of ([1]; Melittin 4 μg/ml): 2 μg/m1
MIC in the presence of ([1]; No peptide): 4 μg/m1
MIC (E. coli; Escherichia coli, SC9251 / SC9252, strain SC9251, Parent of SC9252): 0.12 µg/mL (≈ 0.22 µM)
MIC (E. coli; Escherichia coli, SC9252, strain SC9252, Polymyxin resistant): 0.5 µg/mL (≈ 0.915 µM)
MIC (E. coli; Escherichia coli, strain DC2, Polymyxin sensitive): 0.06 µg/mL (≈ 0.11 µM)
MIC (E. coli; Escherichia coli, strain UB1005, Parent of DC2 (Table 2)): 0.5 µg/mL (≈ 0.915 µM)
MIC (P. AERUGINOSA H309; Pseudomonas aeruginosa, +5 mM Mg^++, read-out: MIC): 2 µg/mL (≈ 3.66 µM)
MIC (P. AERUGINOSA H309; Pseudomonas aeruginosa, +80 mM Na^+, read-out: MIC): 2 µg/mL (≈ 3.66 µM)
MIC (P. AERUGINOSA H309; Pseudomonas aeruginosa, No addition, read-out: MIC): 1 µg/mL (≈ 1.83 µM)

C[C@@H](O)[C@H]1C(=O)N2C(C(=O)O)=C(SCCN=CN)C[C@H]12 [Imipenem, imipenem]
MIC in the presence of ([1]; CEMA 0.7 μg/ml): 4 μg/m1
MIC in the presence of ([1]; CEMA 1.4 μg/ml): 2 μg/m1
MIC in the presence of ([1]; CEME 0.6 μg/ml): 4 μg/m1
MIC in the presence of ([1]; CEME 1.2 μg/ml): 4 μg/m1
MIC in the presence of ([1]; Melittin 2 μg/ml): 4 μg/m1
MIC in the presence of ([1]; Melittin 4 μg/ml): 4 μg/m1
MIC in the presence of ([1]; No peptide): 4 μg/m1

CN(C)[C@@H]1C(O)=C(C(N)=O)C(=O)[C@@]2(O)C(O)=C3C(=O)c4c(O)cccc4[C@@](C)(O)[C@H]3C[C@@H]12 [Tetracycline, tetracycline]
MIC in the presence of ([1]; CEMA 0.7 μg/ml): 8 μg/m1
MIC in the presence of ([1]; CEMA 1.4 μg/ml): 4 μg/m1
MIC in the presence of ([1]; CEME 0.6 μg/ml): 8 μg/m1
MIC in the presence of ([1]; CEME 1.2 μg/ml): 8 μg/m1
MIC in the presence of ([1]; Melittin 2 μg/ml): 8 μg/m1
MIC in the presence of ([1]; Melittin 4 μg/ml): 8 μg/m1
MIC in the presence of ([1]; No peptide): 8 μg/m1

gentamicin
MIC (S. aureus; strain RN4220, Methicillin sensitive): 2 µg/mL
MIC (S. aureus; strain SAP0017, Methicillin resistant): > 8 µg/mL
I50, Value in μg/ml [2]: 36.92 ± 9.12 µg/mL
MIC (P. aeruginosa; strain H187, Parent of H188): 1 µg/mL
MIC (P. aeruginosa; strain H188, Antibiotic sensitive): 0.25 µg/mL
MIC (P. aeruginosa; strain H309, Wildtype): 1 µg/mL
MIC (E. cloacae; strain 218S, Parent of 218R1 (Table 2)): 0.5 µg/mL
I50, Value in μg/ml (P. aeruginosa H103 LPS): 18.16 ± 6.77 µg/mL
IC50 (P. aeruginosa H103 LPS; read-out: I50, Value in μM): 19.2 ± 7.18 µM
MIC (E. coli; strain UB1005, Parent of DC2 (Table 2)): 1 µg/mL
MIC (P. AERUGINOSA H309; +5 mM Mg^++): 4 µg/mL
MIC (P. AERUGINOSA H309; +80 mM Na^+): 1 µg/mL
MIC (P. AERUGINOSA H309; No addition): 1 µg/mL
